≈ marks a conversion by molar mass, not a printed value. Entries after “also recorded” stand apart in the source; their conditions may differ.
What was measured:
RAW264.7 cells = assay: Cell viability (MTT) in the presence of LPS; assay type: cell-based, murine; details: for Cell Viability (% of Control): RAW264.7, 100 ng/mL LPS, 24 h, MTT, mean ± S.D.
Protocol: (§1) A murine macrophage cell line RAW264.7 (BCRC No. 60001) was purchased from the Bioresources Collection and Research Center (BCRC, Hsinchu, Taiwan) of the Food Industry Research and Development Institute (Hsinchu, Taiwan). Cells were cultured in plastic dishes containing Dulbecco’s Modified Eagle Medium (DMEM, Sigma) supplemented with 10% fetal bovine serum (FBS, Sigma) in a CO2 incubator (5% CO2 in air) at 37 °C and subcultured every 3 days at a dilution of 1:5 using 0.05% trypsin-0.02% EDTA in Ca^2+-, Mg^2+-free phosphate-buffered saline (DPBS).
Cells (2 × 10^5) were cultured in 96-well plate containing DMEM supplemented with 10% FBS for 1 day to become nearly confluent. Then cells were cultured with compounds 1–5 in the presence of 100 ng/mL LPS (lipopolysaccharide) for 24 h. After that, the cells were washed twice with DPBS and incubated with 100 μL of 0.5 mg/mL MTT for 2 h at 37 °C testing for cell viability. The medium was then discarded and 100 μL dimethyl sulfoxide (DMSO) was added. After 30-min incubation, absorbance at 570 nm was read using a microplate reader (Molecular Devices, Sunnyvale, CA, USA).

[1] = tested on: LPS-induced NO production in macrophages (RAW264.7 cells); assay: Measurement of nitric oxide/nitrite (Griess reaction) in LPS-stimulated macrophages; assay type: cell-based, murine; details: for NO Inhibition (% of Control) / No Level: LPS 100 ng/mL, 24 h, mean ± S.D.; for No Level: nitrite in medium, LPS alone 30.3 ± 2.2, in µM
Protocol: as §1
NO production was indirectly assessed by measuring the nitrite levels in the cultured media and serum determined by a colorimetric method based on the Griess reaction. The cells were incubated with different concentration of samples in the presence of LPS (100 ng/mL) at 37 °C for 24 h. Then, cells were dispensed into 96-well plates, and 100 μL of each supernatant was mixed with the same volume of Griess reagent (1% sulfanilamide, 0.1% naphthylethylenediamine dihydrochloride and 5% phosphoric acid) and incubated at room temperature for 10 min, the absorbance was measured at 540 nm with a Micro-Reader (Molecular Devices). By using sodium nitrite to generate a standard curve, the concentration of nitrite was measured form absorbance at 540 nm.
IC50 values were estimated using a non-linear regression algorithm (Sigma Plot 12.0; SPSS Inc. Chicago, IL, USA). Statistical evaluation was carried out by one-way ANOVA followed by Scheffe’s multiple range tests.

`COc1cc([C@H]2Oc3cc(/C=C\CO)ccc3O[C@@H]2C)ccc1O` [Compound 1, isoamericanol B] was tested, and the “Cell Viability (% of Control)” value (RAW264.7 cells; dose 2.5 μg/mL) was 100.6 ± 5.9 % of Control, the “Cell Viability (% of Control)” value (RAW264.7 cells; dose 5 μg/mL) was 97.6 ± 4.3 % of Control and the “Cell Viability (% of Control)” value (RAW264.7 cells; dose 10 μg/mL) was 90.7 ± 3.3 % of Control. For the same compound, the “Cell Viability (% of Control)” value (RAW264.7 cells; dose 20 μg/mL) was 88.8 ± 2.6 % of Control, the “Change of cell viability (in words)” value (RAW264.7 cells; tested concentrations 2.5 to 20 μg/mL) was “did not significantly change cell viability; also recorded: did not change significantly cell viability” and the IC50 ([1]; Mus musculus, RAW264.7, 24 h, LPS-stimulated RAW264.7 cells, non-linear regression, read-out: IC50 for inhibition of nitrite production) was roughly 10.3 µg/mL (≈ 31.4 µM). For the same compound, the “NO Inhibition (% of Control)” value ([1]; dose 2.5 μg/mL) was 42.0 ± 1.6 % of Control, the “No Level” value ([1]; dose 2.5 μg/mL) was 17.6 ± 0.5 and the “NO Inhibition (% of Control)” value ([1]; dose 5 μg/mL) was 42.3 ± 2.6 % of Control. The “No Level” value ([1]; dose 5 μg/mL) was 17.5 ± 08, the “NO Inhibition (% of Control)” value ([1]; dose 10 μg/mL) was 49.7 ± 1.4 % of Control and the “No Level” value ([1]; dose 10 μg/mL) was 15.2 ± 0.4. For the same compound, the “NO Inhibition (% of Control)” value ([1]; dose 20 μg/mL) was 60.4 ± 1.3 % of Control and the “No Level” value ([1]; dose 20 μg/mL) was 12.0 ± 0.4.
